#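 Test compounds were applied to cells in 96-well plates for 48 hours at 5 doses. GI50 marks 50% less growth.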 Activity calls are given as the source filed them. Cut-off read from the data, not from the text of the source: active = GI50 up to about 1.1 µM and inactive = higher.
# Tests used:
# Experiment in all cases: growth of human tumour cells (NCI), 48 h
# [1] = test system: NCI-H226
# [2] = test system: U-251
# [3] = test system: TK-10
# [4] = test system: SK-MEL-5
# [5] = test system: NCI-H23
# [6] = test system: HOP-92
# [7] = test system: MOLT-4
# [8] = test system: SR
# [9] = test system: OVCAR-5
# [10] = test system: IGROV-1
# [11] = test system: SK-OV-3
# [12] = test system: Hs-578T
# [13] = test system: MDA-MB-231
# [14] = test system: SF-539
# [15] = test system: SF-268
# [16] = test system: SF-295
# [17] = test system: MCF7
# [18] = test system: HCT-116
# [19] = test system: CAKI-1
# [20] = test system: RXF 393
SMILES,GI50 [1],GI50 [2],GI50 [3],GI50 [4],GI50 [5],GI50 [6],GI50 [7],GI50 [8],GI50 [9],GI50 [10],GI50 [11],GI50 [12],GI50 [13],GI50 [14],GI50 [15],GI50 [16],GI50 [17],GI50 [18],GI50 [19],GI50 [20]
O=c1c2ncn(C3CCCCO3)c2n(-c2ccccc2)c(=S)n1-c1ccccc1 (stereo not given),25.9 µM (inactive),14.5 µM (inactive),31.9 µM (inactive),> 74.3 µM (inactive),31.4 µM (inactive),9.91 µM (inactive),> 100 µM (inactive),> 4.65 µM (inactive),> 61.1 µM (inactive),28.6 µM (inactive),20.7 µM (inactive),10.1 µM (inactive),26.2 µM (inactive),10.8 µM (inactive),11 µM (inactive),16.1 µM (inactive),49.5 µM (inactive),45.5 µM (inactive),42.4 µM (inactive),7.8 µM (inactive)
CSc1nc(SC)c2c(CO)c(Br)n(Cc3ccccc3)c2n1,11.3 µM (inactive),12.6 µM (inactive),21.8 µM (inactive),48.9 µM (inactive),30.7 µM (inactive),17.2 µM (inactive),> 100 µM (inactive),> 100 µM (inactive),56.9 µM (inactive),16 µM (inactive),20.2 µM (inactive),19.1 µM (inactive),17.7 µM (inactive),12.2 µM (inactive),16.3 µM (inactive),20.7 µM (inactive),24.6 µM (inactive),26.4 µM (inactive),10 µM (inactive),28 µM (inactive)
COC(=O)c1ccccc1CC1Cc2ccc3c(c2C1)CCC3 (stereo not given),35.1 µM (inactive),28.6 µM (inactive),21.3 µM (inactive),22.1 µM (inactive),38.1 µM (inactive),20.1 µM (inactive),21.6 µM (inactive),5.38 µM (inactive),29.5 µM (inactive),35.4 µM (inactive),32.7 µM (inactive),37 µM (inactive),19.5 µM (inactive),56.2 µM (inactive),41.3 µM (inactive),35.2 µM (inactive),14.3 µM (inactive),23.3 µM (inactive),45.5 µM (inactive),19.1 µM (inactive)
CCC1CN2CCc3c([nH]c4ccccc34)[C@@](C(=O)OC)(c3cc4c(cc3OC)N(C)C3C(O)(C(=O)OC)C(C(=O)OC)C5(CC)C=CCN6CCC43C65)C[C@@H](C2)[C@@H]1C(C)(C)C (stereo not given in full),0.267 µM (active),0.417 µM (active),1.09 µM (active),0.274 µM (active),0.352 µM (active),1.03 µM (active),0.479 µM (active),0.473 µM (active),2.68 µM (inactive),0.668 µM (active),1 µM (active),0.463 µM (active),0.407 µM (active),0.381 µM (active),0.615 µM (active),0.226 µM (active),0.461 µM (active),0.312 µM (active),4.27 µM (inactive),0.285 µM (active)
Cc1ccc(S[C@@H](C)[C@@](O)(C(N)=O)c2ccccc2)cc1,64.4 µM (inactive),70.3 µM (inactive),> 100 µM (inactive),20.6 µM (inactive),29.8 µM (inactive),18.7 µM (inactive),12.4 µM (inactive),> 10 µM (inactive),> 100 µM (inactive),3.74 µM (inactive),> 100 µM (inactive),> 100 µM (inactive),19.2 µM (inactive),25.6 µM (inactive),> 100 µM (inactive),18.5 µM (inactive),44.8 µM (inactive),35.2 µM (inactive),16.6 µM (inactive),86.1 µM (inactive)
